Reference: ChEMBL document CHEMBL1201862, “PubChem BioAssay data set” (2004)
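Where inhibition never reached the appropriate level, the endpoint shown equals the highest concentration tested. Otherwise, values were interpolated linearly from a five-concentration, 48-hour dose response in 96-well plates. GI50 is the concentration that inhibits growth by half.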 Activity calls are given as the source filed them. No stated cut-off is given here; in the data, active = GI50 up to about 1.1 µM and inactive = higher.

Columns and labels:
Assay in all cases: growth of human tumour cells (NCI), 48 h
A549 = system: A549
DU-145 = system: DU-145
EKVX = system: EKVX
HCT-116 = system: HCT-116
HCT-15 = system: HCT-15
HL-60 = system: HL-60
HT-29 = system: HT-29
LOX IMVI = system: LOX IMVI
MOLT-4 = system: MOLT-4
NCI-H460 = system: NCI-H460
OVCAR-8 = system: OVCAR-8
SF-268 = system: SF-268
SF-295 = system: SF-295
SK-MEL-28 = system: SK-MEL-28
SN12C = system: SN12C
SNB-19 = system: SNB-19
SR = system: SR
TK-10 = system: TK-10
UO-31 = system: UO-31
A498 = system: A498

| SMILES | GI50 (A549) | GI50 (DU-145) | GI50 (EKVX) | GI50 (HCT-116) | GI50 (HCT-15) | GI50 (HL-60) | GI50 (HT-29) | GI50 (LOX IMVI) | GI50 (MOLT-4) | GI50 (NCI-H460) | GI50 (OVCAR-8) | GI50 (SF-268) | GI50 (SF-295) | GI50 (SK-MEL-28) | GI50 (SN12C) | GI50 (SNB-19) | GI50 (SR) | GI50 (TK-10) | GI50 (UO-31) | GI50 (A498) |
| --- | --- | --- | --- | --- | --- | --- | --- | --- | --- | --- | --- | --- | --- | --- | --- | --- | --- | --- | --- | --- |
| CC(C)CC(NC(=O)C(O)C(N)Cc1ccccc1)C(=O)O (stereo not given) | > 100 µM (inactive) | > 100 µM (inactive) | > 100 µM (inactive) | > 100 µM (inactive) | > 100 µM | > 100 µM (inactive) | > 100 µM (inactive) | > 100 µM (inactive) | > 100 µM (inactive) | > 100 µM (inactive) | > 100 µM (inactive) | > 100 µM (inactive) | > 100 µM (inactive) | > 100 µM (inactive) | > 100 µM (inactive) | > 100 µM (inactive) | > 100 µM (inactive) | > 100 µM (inactive) | 56.4 µM (inactive) |  |
| Cc1oc(N)c(S(=O)(=O)c2cc3ccccc3[n+]([O-])c2N)c1C | > 100 µM (inactive) | > 100 µM (inactive) | > 100 µM (inactive) |  | > 100 µM |  | > 100 µM (inactive) | > 100 µM (inactive) | > 100 µM (inactive) | > 100 µM (inactive) | > 100 µM (inactive) | > 100 µM (inactive) | > 100 µM (inactive) | > 100 µM (inactive) | > 100 µM (inactive) | > 100 µM (inactive) | < 0.01 µM (active) | > 100 µM (inactive) | > 100 µM (inactive) | > 100 µM (inactive) |
| O=C1NC(=O)/C(=C/c2ccc(S(=O)(=O)N/N=C/c3ccccc3)cc2)N1 | > 100 µM (inactive) | > 100 µM (inactive) | > 100 µM (inactive) | > 100 µM (inactive) | > 100 µM | > 100 µM (inactive) | > 100 µM (inactive) | > 100 µM (inactive) | > 100 µM (inactive) |  | > 100 µM (inactive) | > 100 µM (inactive) | > 100 µM (inactive) | > 100 µM (inactive) | > 100 µM (inactive) | > 100 µM (inactive) |  | > 100 µM (inactive) | > 100 µM (inactive) | 2.75 µM (inactive) |
| CC1CN=C(N(C(=O)Nc2ccc(Cl)c(Cl)c2)c2ccccc2)S1 (stereo not given) | 53.7 µM (inactive) | 91.8 µM (inactive) | 71.1 µM (inactive) | 42.6 µM (inactive) | 27 µM | > 10 µM (inactive) | 34.8 µM (inactive) | 28.7 µM (inactive) | > 100 µM (inactive) | 43.4 µM (inactive) | 87.1 µM (inactive) | 69.2 µM (inactive) | 75.7 µM (inactive) | 38.5 µM (inactive) | 33.6 µM (inactive) | > 100 µM (inactive) |  | 38.9 µM (inactive) | > 100 µM (inactive) | > 100 µM (inactive) |
| Cc1ccc(S(=O)(=O)N/N=C2/C3CCC(C3)C2c2ccccc2)cc1 (stereo not given) | > 100 µM (inactive) | > 100 µM (inactive) | > 100 µM (inactive) | > 100 µM (inactive) | > 100 µM | > 100 µM (inactive) | > 100 µM (inactive) | > 100 µM (inactive) | > 100 µM (inactive) | > 100 µM (inactive) | > 100 µM (inactive) | > 100 µM (inactive) | > 100 µM (inactive) | > 100 µM (inactive) | > 100 µM (inactive) | > 100 µM (inactive) | > 100 µM (inactive) | > 100 µM (inactive) | > 100 µM (inactive) |  |
| O=c1cccc2n1C[C@H]1CNC[C@H]2C1 | > 100 µM (inactive) | > 100 µM (inactive) | > 100 µM (inactive) | > 100 µM (inactive) | > 100 µM | > 100 µM (inactive) | > 100 µM (inactive) | > 100 µM (inactive) | > 100 µM (inactive) | > 100 µM (inactive) | > 100 µM (inactive) | > 100 µM (inactive) | > 100 µM (inactive) | > 100 µM (inactive) | > 100 µM (inactive) | > 100 µM (inactive) |  | > 100 µM (inactive) | > 100 µM (inactive) | > 100 µM (inactive) |
| Cc1c(CNc2ccc(C(=O)NC(CCCNC(=O)c3ccccc3C(=O)O)C(=O)O)cc2)cnc2nc(N)nc(N)c12 (stereo not given) | 0.000419 µM (active) | 0.00091 µM (active) | 0.00248 µM (active) | 0.000582 µM (active) | 0.000453 µM | > 100 µM (inactive) | 0.001 µM (active) | < 0.0001 µM (active) | 0.000566 µM (active) | 0.000381 µM (active) | 0.000324 µM (active) | 0.000356 µM (active) | 0.000593 µM (active) | 0.192 µM (active) | 0.00466 µM (active) | 0.01 µM (active) | 0.000452 µM (active) | 1.79 µM (inactive) | 0.001 µM (active) |  |
| Cc1c2c(n(CCc3ccccc3)c1C)N(C)N=C(C#N)S2(=O)=O | > 100 µM (inactive) | > 100 µM (inactive) | > 100 µM (inactive) | > 100 µM (inactive) | > 100 µM |  | > 100 µM (inactive) |  | > 100 µM (inactive) | > 100 µM (inactive) | > 100 µM (inactive) | > 100 µM (inactive) | > 100 µM (inactive) | > 100 µM (inactive) | > 100 µM (inactive) | > 100 µM (inactive) | > 100 µM (inactive) | > 100 µM (inactive) | > 100 µM (inactive) | > 10 µM (inactive) |
| O=C(O)c1nn(-c2ccccc2)nc1-c1nn(-c2ccccc2)nc1C(=O)O | > 100 µM (inactive) | > 100 µM (inactive) | > 100 µM (inactive) | > 100 µM (inactive) | > 100 µM | > 100 µM (inactive) | > 100 µM (inactive) | > 100 µM (inactive) | > 100 µM (inactive) | > 100 µM (inactive) | > 100 µM (inactive) | > 100 µM (inactive) | > 100 µM (inactive) | > 100 µM (inactive) | > 100 µM (inactive) | > 100 µM (inactive) | > 100 µM (inactive) | > 100 µM (inactive) | > 100 µM (inactive) |  |
| CN(C)CCCCN1c2ccccc2Sc2ccc(N=[N+]=[N-])cc21 | 9.93 µM (inactive) | 5.7 µM (inactive) | 13.2 µM (inactive) | 4.21 µM (inactive) | 3.72 µM | 2.06 µM (inactive) | 2.22 µM (inactive) | 2.26 µM (inactive) | 1.39 µM (inactive) | 4.09 µM (inactive) | 10 µM (inactive) | 5.97 µM (inactive) | 5.66 µM (inactive) | 1.91 µM (inactive) | 8.43 µM (inactive) | 8.85 µM (inactive) |  | 12.1 µM (inactive) | 6.34 µM (inactive) | 8.73 µM (inactive) |
| CC1(C)N=C(C2CCCN2C(=O)OCc2ccccc2)OC1=O (stereo not given) | > 100 µM (inactive) | > 100 µM (inactive) |  | > 100 µM (inactive) | > 100 µM | > 100 µM (inactive) | > 100 µM (inactive) | > 100 µM (inactive) | > 100 µM (inactive) | > 100 µM (inactive) | > 100 µM (inactive) | > 100 µM (inactive) | > 100 µM (inactive) | > 100 µM (inactive) | > 100 µM (inactive) | > 100 µM (inactive) |  | > 100 µM (inactive) | > 100 µM (inactive) | > 100 µM (inactive) |
